Assays:
[1] = system: inflammatory muscle lesions and necrotic areas; assay: MRT visualization of inflammatory lesions and necrotic areas in rats; assay type: in vivo; details: i.v. 50 μmol of Gd/kg, T1-weighted turbo-spin-echo 1.5 T
Description: By way of example, the pictures of FIG. 3 show MR images of inflammatory muscle lesions as well as necrotic areas at different points in time after intravenous administration of 50 μmol of Gd/kg of body weight of gadolinium complex XIV (title substance of Example 4g) in rats. The inflammation/necrosis was induced by intravenous administration of Rose Bengal (20 mg/kg; 24 hours before the administration of contrast medium) and subsequent 20-minute irradiation with a xenon lamp.

mice = assay: Acute toxicity after one-time intravenous administration in mice; assay type: in vivo; details: one-time i.v., observation period of 7 days, determined preliminarily
Description: After intravenous administration of the gadolinium complexes (I-X) in mice (n=3; rate of injection: 2 ml/min), the acute systemic compatibility (LD50) was determined preliminarily. In each case, several dosages with an observation period of 7 days were examined. The acute toxicities that are to be expected can be seen in Table 1.

[2] = system: iliac lymph nodes and i.m.-implanted VX2 tumors; assay: MRT visualization of lymph node metastases and primary tumors in VX2-tumor-carrying rabbits; assay type: in vivo; details: rabbits with VX2 tumors, i.v. 50 μmol of Gd/kg
Description: The pictures of FIG. 1 show MR images of iliac lymph nodes precontrast as well as up to 24 hours after intravenous administration of 50 μmol of Gd/kg of body weight of gadolinium complex VIII (title substance of Example 16c) in rabbits with i.m.-implanted VX2 tumors. […] Zones where there was no signal rise within the lymph node were diagnosed as metastases and confirmed histologically (H/E staining of the lymph node sections).
At later times (24 hours p.i.), this enhancement also propagates toward the center of the tumor.

arteriosclerotic plaque = assay: MRT visualization of arteriosclerotic plaque; assay type: in vivo, Watanabe rabbits (WHHL rabbits); details: WHHL rabbits, i.v. 50 μmol or 100 μmol of Gd/kg, 6 or 24 hours, T1-weighted IR-TFL; not in vascular wall of healthy control animals
Description: The pictures of FIG. 2 show MR images of the aorta 6 or 24 hours after intravenous administration of 50 μmol or 100 μmol of Gd/kg of body weight of gadolinium complex I (title substance of Example 1f), gadolinium complex IV (title substance of Example 11e), and gadolinium complex VIII (title substance of Example 16c) in Watanabe rabbits (WHHL rabbits; genetically-induced arteriosclerosis) and in control animals without arteriosclerosis (white New Zealands). […] The localization of the plaque, especially in the aortic arch as well as in the vascular passages, was confirmed by means of Sudan-3 staining. With this test, the suitability of the compounds according to the invention as markers for arteriosclerotic plaque could be shown.

[3] = Relaxivity in water (NMR pulse spectrometer Minispec PC 20); assay type: physicochemical; details: 40° C., 0.47 T
Description: The T1 and T2 relaxation times of water and plasma (from cows) with increasing concentrations of the gadolinium complexes (I-XIII) contained therein were determined at 40° C. with use of an NMR pulse spectrometer (Minispec PC 20) at 0.47 T, and the relaxivity was determined.

[4] = Plasma kinetics after intravenous administration in rats (ICP-AES); assay type: in vivo; details: i.v., 50 μmol of total gadolinium/kg of body weight
Description: After intravenous administration of 50 μmol of total gadolinium/kg of body weight of the gadolinium complexes (I-X) in rats (n=3), blood samples were taken via a catheter in the common carotid artery at different points in time ([…] to 24 hours p.i.), the metal content was determined by means of atomic emission spectrometry (ICP-AES) and converted to plasma values via a conversion factor (0.625). The elimination half-life was calculated by means of special software (WinNonlin) from the plasma concentrations.

[5] = Excretion after intravenous administration in rats (ICP-AES); assay type: in vivo; details: i.v., 50 μmol of total gadolinium/kg of body weight, 14 days after administration
Text: After intravenous administration of 50 μmol of total gadolinium/kg of body weight of the gadolinium complexes (I-X) in rats (n=3), the metal content was l determined in fractions up to 14 days after administration by means of atomic emission spectrometry (ICP-AES) in the excretion media of urine and feces, as well as in the body (the rest of the body).

[6] = in vivo; cited from earlier work

CC(C(=O)NCC(=O)NCCCC[C@H](NC(=O)CO[C@H]1O[C@H](CO)[C@@H](O)[C@H](O)[C@@H]1O)C(=O)NCCCC(F)(F)C(F)(F)C(F)(F)C(F)(F)C(F)(F)C(F)(F)C(F)(C(F)(F)F)C(F)(F)F)N1CCN(CC(=O)[O-])CCN(CC(=O)[O-])CCN(CC(=O)[O-])CC1.[Gd+3] (stereo partly drawn) [Gadolinium complex XIV, Gadolinium complex of 6-N-[1,4,7-tris-(carboxylatomethyl)-1,4,7,10-tetraazacyclododecane-10-N-(pentanoyl-3-aza-4-oxo-5-methyl-5-yl)]-2-N-(1-O-α-d-carbonylmethylmannopyranose)-L-lysine-[(1H,1H,2H,2H-perfluoro-9-methyldecyl)-methyl]-amide]
MR signal in the central necrosis ([1]; 24 hours p.i.): delayed signal rise
MR signal in inflammatorily altered tissue ([1]; up to 60 minutes p.i.): strong signal rise

CC(C(=O)NCC(=O)N[C@@H](CCCCNC(=O)CO[C@H]1O[C@H](CO)[C@@H](O)[C@H](O)[C@@H]1O)C(=O)N(C)CCC(F)(F)C(F)(F)C(F)(F)C(F)(F)C(F)(F)C(F)(F)C(F)(F)C(F)(F)F)N1CCN(CC(=O)[O-])CCN(CC(=O)[O-])CCN(CC(=O)[O-])CC1.[Gd+3] (stereo partly drawn) [Gadolinium complex VIII, Gadolinium complex of 2-N-[1,4,7-tris-(carboxylatomethyl)-1,4,7,10-tetraazacyclododecane-10-N-(pentanoyl-3-aza-4-oxo-5-methyl-5-yl)]-6-N-(1-O-α-d-carbonylmethylmannopyranose)-L-lysine-[(1H,1H,2H,2H-perfluorodecyl)-methyl]-amide]
LD50 Mouse (mice): ≧10 mmol/kg
MR signal in healthy lymph node tissue ([2]; T1-weighted turbo-spin-echo, 15 to 60 minutes p.i.): strong signal rise
MR enhancement in the primary tumor ([2]; immediately after administration, especially in the periphery): clear enhancement
MR signal in the arteriosclerotic plaque (arteriosclerotic plaque): strong signal rise
Relaxivity R1(w) [3]: R1(w): 20.6 l/(mmol * s)
Elimination Half-Life of Blood [4]: 4.3 h
Gd Content of Blood 24 Hours p.i. ([4]; 24 hours p.i.): 0.5%
Body Retention 14 days [5]: 0.0%

Mn-TPPS
LD50 [6]: approximately 0.5 mmol/kg
